Measurements published in US8895746B2 (University of Central Florida Research Foundation, Inc., priority 2009, dated 2014).

Legend:
[1] = tested on: NIH3T3/v-Ras; experiment: Colony survival assay; assay type: cell-based, mouse
Procedure: This was performed as previously reported (39). […] Colonies were stained with crystal violet for 4 h and counted under phase-contrast microscope.
Cultured single-cells were untreated or treated once with S3I-201.1066 and allowed to grow until large colonies were visible, which were stained and enumerated.

[2] = tested on: c-Myc, Bcl-xL, VEGF, and MMP-9 proteins; experiment: Immunoblotting of Stat3-regulated gene products in MDA-MB-231 and Panc-1 cells; assay type: cell-based, human; conditions: 48 h-treatment
Procedure: (§1) Immunoprecipitation from whole-cell lysates and SDS/PAGE and Western blotting analysis were performed as previously described (33,38).
Known Stat3 downstream target genes are key in the dysregulated biological processes promoted by aberrant Stat3 (9, 20, 42).

[3] = tested on: human breast cancer (MDA-MB-231) xenografts; conditions: mouse, in vivo
Source text: Wounds were made using pipette tips in monolayer cultures of cells in six-well plates. […] The migration of cells was visualized at a 10× magnification using an Axiovert 200 Inverted Fluorescence Microscope (Zeiss, Göttingen Germany), with pictures taken using a mounted Canon Powershot A640 digital camera (Canon USA, Lake Success, N.Y.). Cells that migrated into the denuded area were quantified. Mice and in vivo tumor studies-Six-week-old female athymic nude mice were purchased from Harlan and maintained in the institutional animal facilities approved by the American Association for Accreditation of Laboratory Animal Care. Athymic nude mice were injected subcutaneously in the left flank area with 5×10^6 human breast cancer MDA-MB-231 cells in 100 μL of PBS. After 5 to 10 days, tumors of a diameter of 3 mm were established. […] Tumor volume was calculated according to the formula V=0.52×a^2×b, where a, smallest superficial diameter, b, largest superficial diameter.

[4] = tested on: pTyr705Stat3; experiment: Western blot of pTyr705Stat3 in NIH3T3/v-Src and Panc-1 cells; assay type: cell-based, mouse, human; conditions: 24 h
Procedure: as §1

[5] = biological target: T1, His-tagged Stat3 (Mus musculus, UniProt P42227); experiment: Surface Plasmon Resonance analysis of binding to immobilized His-tagged Stat3; design: species or system murine
T1 construct: Coding regions for the murine Stat3 protein; made in house; host or cells: E. coli BL21(DE3)
T1 sequence (P42227 whole entry): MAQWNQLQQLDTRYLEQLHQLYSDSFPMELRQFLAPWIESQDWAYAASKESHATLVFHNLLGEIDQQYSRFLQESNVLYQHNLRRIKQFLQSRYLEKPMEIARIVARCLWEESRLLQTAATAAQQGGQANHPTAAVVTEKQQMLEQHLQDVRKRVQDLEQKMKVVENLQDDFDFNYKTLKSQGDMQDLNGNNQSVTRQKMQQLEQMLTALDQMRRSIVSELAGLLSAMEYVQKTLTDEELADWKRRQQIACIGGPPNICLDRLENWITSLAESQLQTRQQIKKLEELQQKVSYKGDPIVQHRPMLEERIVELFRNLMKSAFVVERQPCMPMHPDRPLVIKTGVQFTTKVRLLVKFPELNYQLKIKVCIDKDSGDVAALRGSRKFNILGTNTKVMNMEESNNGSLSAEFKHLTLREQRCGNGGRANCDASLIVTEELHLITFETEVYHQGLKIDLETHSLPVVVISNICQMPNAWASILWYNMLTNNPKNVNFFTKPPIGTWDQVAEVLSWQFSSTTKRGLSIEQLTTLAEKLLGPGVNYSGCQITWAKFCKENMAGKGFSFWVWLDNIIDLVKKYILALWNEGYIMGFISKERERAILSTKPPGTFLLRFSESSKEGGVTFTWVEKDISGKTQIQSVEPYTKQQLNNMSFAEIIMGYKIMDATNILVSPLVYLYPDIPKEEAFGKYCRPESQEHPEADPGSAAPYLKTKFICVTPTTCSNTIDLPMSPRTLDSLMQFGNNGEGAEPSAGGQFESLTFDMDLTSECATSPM
Source text: Coding regions for the murine Stat3 protein and Stat3 SH2 domain were amplified by PCR and cloned into vectors pET-44 Ek/LIC (Novagen) and pET SUMO (Invitrogen), respectively.
Clones were sequenced to verify the correct sequences and orientation. His-tagged recombinant proteins were expressed in BL21(DE3) cells, and purified on Ni-ion sepharose column.
SensiQ and its analysis software Qdat (ICX Technologies, Oklahoma City, Okla.) were used to analyze the interaction between agents and the Stat3 protein and to determine the binding affinity. Purified Stat3 was immobilized on a HisCap Sensor Chip by injecting 50 µg/ml of Stat3 onto the chip. […] The association and dissociation rate constants were calculated using the Qdat software. The ratio of the association and dissociation rate constants was determined as the affinity (KD).
To provide definitive evidence of direct binding to Stat3, biophysical studies were performed. H1s-tagged Stat3 protein (or SH2 domain; 50 ng) was immobilized on a Ni-NTA sensor chip surface for Surface Plasmon Resonance analysis of the binding of 531201.1066 as the analyte. Association and dissociation measurements were taken and the binding affinity of S31-201.1066 for Stat3 was determined using Qdat software.

[6] = tested on: Src (pY416Src), Jak1 (pJak), Shc (pShc), and Erk1/2 (pErk1/2); experiment: Western blot of phosphorylation of Src, Jak1, Shc, Erk1/2 in NIH3T3/v-Src and Panc-1 cells; assay type: cell-based, mouse, human
Procedure: as §1
We infer that […].

[7] = tested on: Stat3-dependent luciferase reporter (pLucTKS3); experiment: Stat3-dependent luciferase reporter in NIH3T3/v-Src; assay type: cell-based, mouse; conditions: NIH3T3/v-Src stably expressing pLucTKS3; 36-h treatment
Source text: Positions of STATs:DNA complexes or proteins in gel are labeled; control lanes (0) represent nuclear extracts treated with 0.05% DMSO, or nuclear extracts or whole-cell lysates prepared from 0.05% DMSO-treated cells. Data are representative of 3-4 independent determinations. **—<0.01;
Normal mouse fibroblasts (NIH3T3) and counterparts transformed by v-Src (NIH3T3/v-Src), v-Ras (NIH3T3/v-Ras) or overexpressing the human epidermal growth factor (EGF) receptor (NIH3T3/hEGFR), and the human breast cancer (MDA-MB-231) and pancreatic cancer (Panc-1) cells have all been previously reported (15,27-29). The normal human pancreatic duct epithelial cells (HPDEC) was a kind gift from Dr. Tsao, (OCI, UHN-PMH, Toronto) (30), Stat3 knockout mouse embryonic fibroblasts was generously provided by Dr. Poli (31), and the mouse thymic epithelial stromal cells (TE-71) was a generous gift from Dr. Farr (32). The Stat3dependent reporter, pLucTKS3 and the v-Src transformed mouse fibroblasts that stably express pLucTKS3 have been previously reported (15, 33). Cells were grown in Dulbecco's modified Eagle's medium (DMEM) containing 10% heat-inactivated fetal bovine serum, or in the case of HPDEC, they were grown in Keratinocyte-SFM media supplemented with 0.2 ng EGF, 30 μg/ml bovine pituitary extract and containing antimycol.

[8] = biological target: T2, Stat3 association with EGFR (Homo sapiens, UniProt P40763); experiment: Co-immunoprecipitation of EGFR immunecomplex from treated Panc-1 and MDA-MB-231 cells; assay type: cell-based
T2 construct: immunoprecipitated from whole-cell lysates prepared from treated and untreated cancer cells and blotted for Stat3; endogenous in cells; host or cells: Panc-1 and MDA-MB-231 cells
T2 sequence (P40763 2-770 limits assumed): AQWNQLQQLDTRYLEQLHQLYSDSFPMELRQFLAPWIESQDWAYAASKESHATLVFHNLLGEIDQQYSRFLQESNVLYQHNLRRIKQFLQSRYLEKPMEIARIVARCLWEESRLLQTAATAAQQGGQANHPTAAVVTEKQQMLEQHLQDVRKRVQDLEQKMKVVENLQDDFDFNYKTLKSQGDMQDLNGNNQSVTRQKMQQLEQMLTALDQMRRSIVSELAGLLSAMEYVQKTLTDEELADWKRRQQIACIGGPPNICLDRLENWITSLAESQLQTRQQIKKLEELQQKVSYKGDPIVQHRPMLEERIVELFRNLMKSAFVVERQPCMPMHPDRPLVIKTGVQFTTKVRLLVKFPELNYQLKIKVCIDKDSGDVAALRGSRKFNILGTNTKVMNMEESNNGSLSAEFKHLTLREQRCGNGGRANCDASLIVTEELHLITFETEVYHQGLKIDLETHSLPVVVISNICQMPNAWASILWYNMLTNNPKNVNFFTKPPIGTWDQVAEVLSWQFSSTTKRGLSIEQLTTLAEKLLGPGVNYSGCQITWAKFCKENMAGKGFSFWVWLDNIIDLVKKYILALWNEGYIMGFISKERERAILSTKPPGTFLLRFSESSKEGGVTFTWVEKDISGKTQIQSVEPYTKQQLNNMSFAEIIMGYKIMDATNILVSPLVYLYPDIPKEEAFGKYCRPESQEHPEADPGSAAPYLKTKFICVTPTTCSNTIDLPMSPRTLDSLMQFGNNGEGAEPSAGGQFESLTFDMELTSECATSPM
Procedure: as §1
Cells were then subjected to immunostaining for EGFR (red) and Stat3 (green) and analyzed by confocal microscopy for EGF-induced colocalization of Stat3 and EGFR and for Stat3 nuclear translocation, as previously performed (17). In the resting NIH3T3/hEGFR fibroblasts, EGFR (red) is widely localized at the plasma membrane, while Stat3 (green) is localized at both the plasma membrane and in the cytoplasm, with a minimal colocalization with EGFR at the plasma membrane and no visible presence in the nucleus (stained blue for DAPI) (FIG. 4A upper panel).

## Cc1ccc(S(=O)(=O)N(C)CC(=O)N(Cc2ccc(C3CCCCC3)cc2)c2ccc(C(=O)O)c(O)c2)cc1 [S3I-201.1066]
[1]
  colony numbers, colony survival: minimal effect
[2]
  expression of c-Myc, Bcl-xL, VEGF, and MMP-9 proteins: significantly suppressed
[3]
  toxicity in tumor-bearing mice: no obvious sign of toxicity
[4]
  pTyr705Stat3 levels: concentration-dependent reduction
[5]; affinity (KD) for Stat3 or the SH2 domain, SPR
  Kd: 2.3 µM
[5]; binding affinity, Ko / KD for Stat3, SPR, immobilized His-Stat3
  Kd: 0.00274 µM
[6]; 100 μM, Panc-1
  pJak1 level in Panc-1 cells: disappearance of pJak1 level
[6]; 30-50 μM
  inhibitory effect on phosphorylation of Src, Jak1, Erk1/2MAPK and Shc: minimum inhibitory effect
[6]; 24 h, NIH3T3/v-Src and Panc-1
  phosphorylation of Src, Jak1, Shc and Erk1/2: no significant effects
[7]
  induction of the Stat3-dependent reporter: significantly (p<0.01) repressed
[8]
  Shc or Grb 2 levels associated with EGFR in the complex: without affecting
  level of Stat3 associated with EGFR in the immunecomplex: significantly diminished
  levels of activated and total Erk1/2 in whole-cell lysates: unaffected
